According to the CheMixHub viscosity set:

Experiment: xn = mol fraction of the nth substance listed
Conditions: 101.33 kPa

CCCCN(CCCC)CCCC + CCO
viscosity [mPa·s]
Conditions | 298.15 K | 303.15 K | 308.15 K | 313.15 K | 318.15 K | 323.15 K
x1 = 0.0992 | – | 1.26 | – | 1.084 | – | 0.951
x1 = 0.1034 | 1.393 | – | 1.17 | – | 1.011 | –
x1 = 0.1456 | 1.458 | – | 1.225 | – | 1.06 | –
x1 = 0.1561 | – | 1.334 | – | 1.151 | – | 1.015
x1 = 0.1969 | – | 1.357 | – | 1.174 | – | 1.035
x1 = 0.2099 | 1.508 | – | 1.267 | – | 1.094 | –
x1 = 0.2529 | 1.52 | 1.371 | 1.276 | 1.183 | 1.098 | 1.04
x1 = 0.2945 | – | 1.367 | – | 1.18 | – | 1.033
x1 = 0.3036 | 1.52 | – | 1.274 | – | 1.091 | –
x1 = 0.3531 | 1.511 | – | 1.265 | – | 1.078 | –
x1 = 0.3639 | – | 1.349 | – | 1.163 | – | 1.012
x1 = 0.3986 | 1.501 | 1.341 | 1.255 | 1.153 | 1.065 | 1
x1 = 0.4508 | 1.488 | 1.325 | 1.242 | 1.137 | 1.049 | 0.982
x1 = 0.4951 | 1.477 | – | 1.231 | – | 1.036 | –
x1 = 0.503 | – | 1.309 | – | 1.122 | – | 0.967
x1 = 0.5448 | 1.467 | – | 1.221 | – | 1.024 | –
x1 = 0.5537 | – | 1.294 | – | 1.11 | – | 0.954
x1 = 0.601 | 1.458 | – | 1.211 | – | 1.012 | –
x1 = 0.6426 | – | 1.267 | – | 1.09 | – | 0.936
x1 = 0.6648 | 1.448 | – | 1.199 | – | 0.998 | –
x1 = 0.7126 | 1.441 | – | 1.19 | – | 0.988 | –
x1 = 0.7382 | – | 1.249 | – | 1.067 | – | 0.915
x1 = 0.7934 | 1.424 | – | 1.173 | – | 0.967 | –
x1 = 0.8711 | – | 1.207 | – | 1.027 | – | 0.876
x1 = 0.9196 | – | 1.186 | – | 1.012 | – | 0.861
x1 = 0.9232 | 1.391 | – | 1.138 | – | 0.928 | –
x1 = 0.9604 | – | 1.176 | – | 1.002 | – | 0.851
